Test results: patent publication US11090304B2 (Amgen Inc., priority 2018, dated 2021)
pIC50: −log10 of the molar value.

Assays:
[1] = molecular target: GDP-bound KRAS protein (aa 1-169), containing both G12C and C118A amino acid substitutions (Homo sapiens, UniProt P01116, C118A/G12C); test: Coupled nucleotide exchange assay (SOS-mediated, AlphaScreen); assay type: biochemical; details: 5 min compound pre-incubation
[2] = test system: Phosphorylation of ERK1/2 in MIA PaCa-2 cells; test: Phospho-ERK1/2 MSD assay in MIA PaCa-2 cells; assay type: cell-based; details: Homo sapiens, MIA PaCa-2, 2 h, read-out: p-ERK IC50 (2 h; MIA PaCa-2), 2 h compound treatment
How it was run: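 MSD electrochemiluminescence readout of phospho-ERK1/2 in whole-cell lysates, IC50 by 4-parameter logistic fit. Compound titrations were applied for 2 or 4 h at 37 °C, 5% CO2, followed by 10 ng/mL EGF stimulation for 10 min before lysis.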

Sequence of GDP-bound KRAS protein (aa 1-169), containing both G12C and C118A amino acid substitutions (P01116 1-169 isoform P01116-2 G12C/C118A): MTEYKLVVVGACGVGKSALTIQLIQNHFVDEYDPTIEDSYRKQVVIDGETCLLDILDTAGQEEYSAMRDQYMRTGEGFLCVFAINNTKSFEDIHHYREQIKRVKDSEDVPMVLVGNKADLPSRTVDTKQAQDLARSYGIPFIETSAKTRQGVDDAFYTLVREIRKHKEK

Structure (SMILES)	Coupled exchange IC50 (5 min) [1]	pIC50 [2]
C=CC(=O)N1CCN(c2nc(=O)n(-c3ncsc3C(C)C)c3nc(-c4c(O)cccc4F)c(Cl)cc23)[C@@H](C)C1 [Example 55-17, 6-chloro-7-(2-fluoro-6-hydroxyphenyl)-4-((2S)-2-methyl-4-(2-propenoyl)-1-piperazinyl)-1-(5-(2-propanyl)-1,3-thiazol-4-yl)pyrido[2,3-d]pyrimidin-2(1H)-one]	0.18 | nda μM	6.91
C=CC(=O)N1CCN(c2nc(=O)n(-c3scnc3C(C)C)c3nc(-c4ccccc4F)c(Cl)cc23)[C@@H](C)C1 [Example 55-18, 6-chloro-7-(2-fluorophenyl)-4-((2S)-2-methyl-4-(2-propenoyl)-1-piperazinyl)-1-(4-(2-propanyl)-1,3-thiazol-5-yl)pyrido[2,3-d]pyrimidin-2(1H)-one]	0.067 | nda μM	7.08
C=CC(=O)N1CCN(c2nc(=O)n(-c3ncsc3C(C)C)c3nc(-c4ccccc4F)c(Cl)cc23)[C@@H](C)C1 [Example 55-19, 6-chloro-7-(2-fluorophenyl)-4-((2S)-2-methyl-4-(2-propenoyl)-1-piperazinyl)-1-(5-(2-propanyl)-1,3-thiazol-4-yl)pyrido[2,3-d]pyrimidin-2(1H)-one]	0.22 | nda μM	6.72
C=CC(=O)N1CCN(c2nc(=O)n(-c3cn(Cc4ccccc4)nc3C3CC3)c3nc(-c4c(O)cccc4F)c(Cl)cc23)[C@@H](C)C1 [Example 55-20, 1-(1-benzyl-3-cyclopropyl-1H-pyrazol-4-yl)-6-chloro-7-(2-fluoro-6-hydroxyphenyl)-4-((2S)-2-methyl-4-(2-propenoyl)-1-piperazinyl)pyrido[2,3-d]pyrimidin-2(1H)-one]	0.695 | nda μM	5.57
C=CC(=O)N1CCN(c2nc(=O)n(-c3c[nH]nc3C3CC3)c3nc(-c4c(O)cccc4F)c(Cl)cc23)[C@@H](C)C1 [Example 55-21, 6-chloro-1-(3-cyclopropyl-1H-pyrazol-4-yl)-7-(2-fluoro-6-hydroxyphenyl)-4-((2S)-2-methyl-4-(2-propenoyl)-1-piperazinyl)pyrido[2,3-d]pyrimidin-2(1H)-one]	0.444 | nda μM	≤ 5.00
C=CC(=O)N1CCN(c2nc(=O)n(-c3c(CC)cncc3CC)c3nc(-c4ccccc4F)c(Cl)cc23)[C@@H](C)C1 [Example 55-22, 6-chloro-1-(3,5-diethyl-4-pyridinyl)-7-(2-fluorophenyl)-4-((2S)-2-methyl-4-(2-propenoyl)-1-piperazinyl)pyrido[2,3-d]pyrimidin-2(1H)-one]	0.653 | nda μM	6.52
C=CC(=O)N1CCN(c2nc(=O)n(-c3nccnc3C(C)(C)C)c3nc(-c4c(O)cccc4F)c(Cl)cc23)[C@@H](C)C1 [Example 55-23]	0.208 | nda μM	6.59
C=CC(=O)N1CCN(c2nc(=O)n(-c3ncccc3C(=C)C)c3nc(-c4c(O)cccc4F)c(Cl)cc23)[C@@H](C)C1 [Example 55-24, 6-chloro-7-(2-fluoro-6-hydroxyphenyl)-4-((2S)-2-methyl-4-(2-propenoyl)-1-piperazinyl)-1-(3-(1-propen-2-yl)-2-pyridinyl)pyrido[2,3-d]pyrimidin-2(1H)-one]	0.113 | nda μM	7.13
C=CC(=O)N1CCN(c2nc(=O)n(-c3c(O)cccc3C(C)C)c3nc(-c4ccccc4F)c(Cl)cc23)[C@@H](C)C1 [Example 55-26, 6-chloro-7-(2-fluorophenyl)-1-(2-hydroxy-6-(2-propanyl)phenyl)-4-((2S)-2-methyl-4-(2-propenoyl)-1-piperazinyl)pyrido[2,3-d]pyrimidin-2(1H)-one]	0.091 | nda μM	6.67
C=CC(=O)N1CCN(c2nc(=O)n(-c3c(CC)ncnc3CC)c3nc(-c4c(O)cccc4F)c(Cl)cc23)[C@@H](C)C1 [Example 55-31, 6-chloro-1-(4,6-diethyl-5-pyrimidinyl)-7-(2-fluoro-6-hydroxyphenyl)-4-((2S)-2-methyl-4-(2-propenoyl)-1-piperazinyl)pyrido[2,3-d]pyrimidin-2(1H)-one]	0.098 | nda μM	7.10
C=CC(=O)N1CCN(c2nc(=O)n(-c3c(CC)ncnc3CC)c3nc(-c4ccc(F)cc4F)c(Cl)cc23)[C@@H](C)C1 [Example 55-35, 6-chloro-1-(4,6-diethyl-5-pyrimidinyl)-7-(2,4-difluorophenyl)-4-((2S)-2-methyl-4-(2-propenoyl)-1-piperazinyl)pyrido[2,3-d]pyrimidin-2(1H)-one]	0.225 | nda μM	6.60
C=CC(=O)N1CCN(c2nc(=O)n(-c3c(C(C)C)nc(OC)nc3C(C)C)c3nc(-c4ccccc4F)c(Cl)cc23)[C@@H](C)C1 [Example 55-37, 6-chloro-7-(2-fluorophenyl)-1-(2-methoxy-4,6-di(2-propanyl)-5-pyrimidinyl)-4-((2S)-2-methyl-4-(2-propenoyl)-1-piperazinyl)pyrido[2,3-d]pyrimidin-2(1H)-one]	0.03 | nda μM	7.24

The remaining lines, values ahead:

Coupled exchange IC50 (5 min) [1]	pIC50 [2]	Structure (SMILES)
0.292 | nda μM	6.57	C=CC(=O)N1CCN(c2nc(=O)n(-c3c(C)ncnc3C(C)C)c3nc(-c4cc(F)ccc4F)c(Cl)cc23)[C@@H](C)C1 [Example 55-39, 6-chloro-7-(2,5-difluorophenyl)-1-(4-methyl-6-(2-propanyl)-5-pyrimidinyl)-4-((2S)-2-methyl-4-(2-propenoyl)-1-piperazinyl)pyrido[2,3-d]pyrimidin-2(1H)-one]
0.1 | nda μM	6.83	C=CC(=O)N1CCN(c2nc(=O)n(-c3c(C)ncnc3C(C)C)c3nc(-c4cc(C)ccc4F)c(Cl)cc23)[C@@H](C)C1 [Example 55-40, 6-chloro-7-(2-fluoro-5-methylphenyl)-1-(4-methyl-6-(2-propanyl)-5-pyrimidinyl)-4-((2S)-2-methyl-4-(2-propenoyl)-1-piperazinyl)pyrido[2,3-d]pyrimidin-2(1H)-one]
0.292 | nda μM	6.04	C=CC(=O)N1CCN(c2nc(=O)n(-c3ncnn3C(C)C)c3nc(-c4ccccc4F)c(Cl)cc23)[C@@H](C)C1 [Example 55-41, 6-chloro-7-(2-fluorophenyl)-4-((2S)-2-methyl-4-(2-propenoyl)-1-piperazinyl)-1-(1-(2-propanyl)-1H-1,2,4-triazol-5-yl)pyrido[2,3-d]pyrimidin-2(1H)-one]
0.073 | nda μM	7.15	C=CC(=O)N1CCN(c2nc(=O)n(-c3c(CO)cccc3C(C)C)c3nc(-c4ccccc4F)c(Cl)cc23)[C@@H](C)C1 [Example 55-43, 6-chloro-7-(2-fluorophenyl)-1-(2-(hydroxymethyl)-6-(2-propanyl)phenyl)-4-((2S)-2-methyl-4-(2-propenoyl)-1-piperazinyl)pyrido[2,3-d]pyrimidin-2(1H)-one]
0.149 | nda μM	6.44	C=CC(=O)N1CCN(c2nc(=O)n(-c3ccccc3S(F)(F)(F)(F)F)c3nc(-c4c(O)cccc4F)c(Cl)cc23)[C@@H](C)C1 [Example 56-1, 6-Chloro-7-(2-fluoro-6-hydroxy-phenyl)-4-[(2S)-2-methyl-4-prop-2-enoyl-piperazin-1-yl]-1-[2-(pentafluoro-λ^6-sulfanyl)phenyl]pyrido[2,3-d]pyrimidin-2-one]
0.061 | nda μM	7.28	C=CC(=O)N1CCN(c2nc(=O)n(-c3c(C(C)C)ncnc3C(C)C)c3nc(-c4c(N)cccc4F)c(Cl)cc23)[C@@H](C)C1 [Example 56-2, 7-(2-amino-6-fluorophenyl)-6-chloro-1-(4,6-di(2-propanyl)-5-pyrimidinyl)-4-((2S)-2-methyl-4-(2-propenoyl)-1-piperazinyl)pyrido[2,3-d]pyrimidin-2(1H)-one]
0.433 | nda μM	6.13	C=CC(=O)N1CCN(c2nc(=O)n(-c3c(C)cccc3C3CC3)c3nc(-c4ccccc4F)c(Cl)cc23)[C@@H](C)C1 [Example 56-5, 6-chloro-1-(2-cyclopropyl-6-methylphenyl)-7-(2-fluorophenyl)-4-((2S)-2-methyl-4-(2-propenoyl)-1-piperazinyl)pyrido[2,3-d]pyrimidin-2(1H)-one]
0.125 | nda μM	7.08	C=CC(=O)N1CCN(c2nc(=O)n(-c3ccccc3C(C)C)c3nc(-c4cc(N)ccc4Br)c(Cl)cc23)[C@@H](C)C1 [Example 56-6, 7-(5-amino-2-bromophenyl)-6-chloro-4-((2S)-2-methyl-4-(2-propenoyl)-1-piperazinyl)-1-(2-(2-propanyl)phenyl)pyrido[2,3-d]pyrimidin-2(1H)-one]
0.11 | nda μM	7.16	C=CC(=O)N1CCN(c2nc(=O)n(-c3ccccc3C(C)C)c3nc(-c4cc(N)ccc4Cl)c(Cl)cc23)[C@@H](C)C1 [Example 56-7, 7-(5-amino-2-chlorophenyl)-6-chloro-4-((2S)-2-methyl-4-(2-propenoyl)-1-piperazinyl)-1-(2-(2-propanyl)phenyl)pyrido[2,3-d]pyrimidin-2(1H)-one]
0.269 | nda μM	6.80	C=CC(=O)N1CCN(c2nc(=O)n(-c3ccccc3C(C)C)c3nc(-c4cc(OC)ccc4F)c(Cl)cc23)[C@@H](C)C1 [Example 56-9, 6-chloro-7-(2-fluoro-5-methoxyphenyl)-4-((2S)-2-methyl-4-(2-propenoyl)-1-piperazinyl)-1-(2-(2-propanyl)phenyl)pyrido[2,3-d]pyrimidin-2(1H)-one]
